Laboratory results from patent publication US20230121116A1, “USE OF QUINAZOLINE-BASED TYROSINE KINASE INHIBITORS FOR THE TREATMENT OF CANCERS WITH NRG1 FUSIONS” (Board of Regents, The University of Texas System, priority 2020, published 2023).

The compounds below were run on MDA175-VII (NRG1-DOC4 fusion) cells (assay: Cell viability of MDA175-VII (NRG1-DOC4 fusion) cells, Cell Titer Glo assay). Details: MDA175-VII (NRG1-DOC4 fusion) cells treated with IACS inhibitors, 72 hours.
Assay type: cell-based
Description: FIG. 1A. Representative dose response curves of MDA175-VII (NRG1-DOC4 fusion) treated with the indicated IACS novel quinazoline-based TKIs for 72 hours. Cell viability was determined by Cell Titer Glo Assay.
FIG. 3A. Representative dose response curves of MDA175-VII (NRG1-DOC4 fusion) treated with the indicated anti-HER2 therapy with or without low dose treatment of IACS inhibitors for 72 hours. Cell viability was determined by Cell Titer Glo Assay.
Cell viability was determined by the Cell Titer Glo assay.

Compared with C=CC(=O)N1CCC(Oc2cc3c(Nc4ccc(Cl)c(Cl)c4F)ncnc3cc2OC)C1 (centres unmarked) [IACS-070968], C=CC(=O)N1CC(Oc2cc3c(Nc4ccc(Cl)c(Cl)c4F)ncnc3cc2OC)C1 [IACS-015293] is 20-fold lower in IC50: 3.12 nM for the first, 0.16 nM for the second.

Going from C=CC(=O)N1CC(Oc2cc3c(Nc4ccc(Br)c(Cl)c4)ncnc3cc2OC)C1 [IACS-070864] to C=CC(=O)N1CC(Oc2cc3c(Nc4ccc(Cl)c(Cl)c4)ncnc3cc2OC)C1 [IACS-015285], the IC50 falls from 0.979 nM to 0.268 nM (3.7-fold). The second is the more potent here.

Compared with C=CC(=O)N1CCC(Oc2cc3c(Nc4ccc(Cl)c(Cl)c4)ncnc3cc2OC)CC1 [IACS-070979], C=CC(=O)N1CCC(Oc2cc3c(Nc4ccc(Br)c(Cl)c4)ncnc3cc2OC)CC1 [IACS-070982] is 1.9-fold higher in IC50: 0.157 nM for the first, 0.296 nM for the second.

C=CC(=O)N1CCC(Oc2cc3c(Nc4ccccc4)ncnc3cc2OC)CC1 [IACS-070989] and C=CC(=O)N1CC(Oc2cc3c(Nc4ccccc4)ncnc3cc2OC)C1 [IACS-070871] are within 1.5-fold of each other in IC50: 1.03 nM for the first, 1.08 nM for the second.

Going from C=CC(=O)N1CC(Oc2ccc3ncnc(Nc4ccc(Cl)c(Cl)c4)c3n2)C1 [IACS-052336] to C=CC(=O)N1CC(Oc2cc3c(Nc4ccc(Cl)cc4Cl)ncnc3cc2OC)C1 [IACS-070863], the IC50 falls from 26.8 nM to 10.5 nM (2.6-fold).

First: C=CC(=O)N1CCC(Oc2cc3c(Nc4ccc(Cl)cc4Cl)ncnc3cc2OC)CC1 [IACS-070980]
Second: C=CC(=O)N1CCC(Oc2cc3c(Nc4ccc(Cl)c(Cl)c4F)c(C#N)cnc3cc2OC)CC1 [IACS-070709]
The IC50 of the first is 3.5-fold higher: 4.46 nM for the first, 1.29 nM for the second.

Same assay, conditions: MDA175-VII (NRG1-DOC4 fusion) cells treated with anti-HER2 antibodies with or without low dose IACS inhibitors, 72 hours

Compared with “Pertuzumab: recombinant, humanized monoclonal antibody that inhibits dimerization of HER2 [reference compound]”, T-DM1 [reference compound] is 11-fold higher in IC50: 58.2 nM for the first, 652 nM for the second. The first is the more potent here.
